Results as given in patent US20040116293A1, “Enhanced herbicide composition” (priority 2002, published 2004).

Assays:
[1] = test system: Xanthi-nc tobacco; assay: Herbicidal activity on Xanthi-nc tobacco at three different light levels; format: in vivo, Nicotiana tabacum (tobacco); details: for Phytotoxicity at 5 days: percent leaf area affected / Phytotoxicity at 9 days: percent leaf area affected / Phytotoxicity at 13 days: percent leaf area affected: atrazine (Aatrex Nine-O) 250 ppm, NaSA 800 ppm
From the text: (§1) In all examples, deionized ultra-pure water was used in preparing solutions. Spray solutions were used as soon as possible after mixing.
(§2) In all herbicide applications, plants were sprayed with a sufficient volume to insure good coverage, to the point of runoff of the spray solution. […] For all treatments containing both an herbicide and a salicylate or SAR inducer, these materials were mixed and applied in a single spray solution (commonly known as a tank mix). After spraying, plants were moved to the greenhouse and arranged in randomized complete blocks. Plants were evaluated for herbicidal effects (phytotoxicity) after spraying by assessing damage according to percent leaf area affected. All the data were subject to an analysis of variance, and the mean separations were determined with Duncan's multiple range test at α=0.05.

[2] = test system: velvetleaf; assay: Herbicidal activity (phytotoxicity, percent leaf area affected) of foliar sprays on velvetleaf; format: in vivo, Abutilon theophrasti (velvetleaf); details: for Phytotoxicity at 3 days: percent leaf area affected / Phytotoxicity at 5 days: percent leaf area affected / Phytotoxicity at 7 days: percent leaf area affected: alone or + NaSA 800 ppm
From the text: as §1, §2

[3] = test system: corn variety Silver Queen; assay: Foliar sprays on corn variety Silver Queen (crop damage)
From the text: as §1, §2
Atrazine is commonly used against weeds in corn and small grain crops.

[4] = test system: Xanthi-nc tobacco; assay: Herbicidal activity (phytotoxicity, percent leaf area affected) of foliar sprays on Xanthi-nc tobacco; format: in vivo, Nicotiana tabacum (tobacco); details: for Phytotoxicity at 4 days: percent leaf area affected: alone or + NaSA 800 ppm
From the text: as §1, §2

[5] = test system: Xanthi-nc tobacco; assay: Herbicidal activity on Xanthi-nc tobacco at three different temperatures; format: in vivo, Nicotiana tabacum (tobacco); details: for Phytotoxicity at 3 days: percent leaf area affected / Phytotoxicity at 5 days: percent leaf area affected / Phytotoxicity at 7 days: percent leaf area affected / Phytotoxicity at 10 days: percent leaf area affected: atrazine (Aatrex Nine-O) 250 ppm, NaSA 800 ppm
From the text: as §1, §2

[6] = test system: Xanthi-nc tobacco; assay: Potentiation rating of Aatrex Nine-O (atrazine) herbicidal activity on Xanthi-nc tobacco relative to equimolar salicylic acid; format: in vivo, Nicotiana tabacum (tobacco); design: Potentiation Rating: key: 0 = no potentiation; 1 = potentiation less than equimolar SA; 2 = potentiation statistically equal to equimolar SA; 3 = potentiation statistically greater than equimolar SA; details: for Potentiation of the herbicidal activity of atrazine compared with salicylic acid (in words): tobacco
From the text: as §1, §2

[7] = illumination 9.8 μmoles·m^−2·s^−1
[8] = illumination 31.3 μmoles·m^−2·s^−1
[9] = atrazine (Aatrex Nine-O) 50 ppm
[10] = atrazine (Aatrex Nine-O) 100 ppm
[11] = atrazine (Aatrex Nine-O) 250 ppm
[12] = atrazine (Aatrex Nine-O) 100 ppm, NaSA 800 ppm, acibenzolar-S-methyl 187 ppm, alone or tank-mixed as labelled
[13] = atrazine 100 ppm, alone or + NaSA 1600 ppm
[14] = atrazine 250 ppm, alone or + NaSA 1600 ppm
[15] = atrazine 500 ppm, alone or + NaSA 1600 ppm
[16] = acibenzolar-S-methyl 935 ppm, alone or + atrazine (Aatrex Nine-O) 100 ppm

In the case of `CCNc1nc(Cl)nc(NC(C)C)n1` [Atrazine, 6-chloro-N-ethyl-N′(1-methylethyl)-1,3,5-triazine-2,4-diamine], the “Phytotoxicity at 5 days: percent leaf area affected” value ([1]; illumination 0 (Dark)) is reported as 0.6 AB percent, the “Phytotoxicity at 5 days: percent leaf area affected” value [1, 7] is reported as 0 A percent and the “Phytotoxicity at 5 days: percent leaf area affected” value [1, 8] is reported as 1.9 AB percent. For the same molecule, the “Phytotoxicity at 9 days: percent leaf area affected” value ([1]; illumination 0 (Dark)) was 0.6 A percent, the “Phytotoxicity at 9 days: percent leaf area affected” value [1, 7] was 5.3 AB percent and the “Phytotoxicity at 9 days: percent leaf area affected” value [1, 8] was 67.2 B percent. The “Phytotoxicity at 13 days: percent leaf area affected” value ([1]; illumination 0 (Dark), crop oil control 35.9) was 28.1 A percent, the “Phytotoxicity at 13 days: percent leaf area affected” value [1, 7] was 76.5 B percent and the “Phytotoxicity at 13 days: percent leaf area affected” value [1, 8] was 100%. For the same molecule, the “Phytotoxicity at 3 days: percent leaf area affected” value [2, 9] was 17.5 B percent, the “Phytotoxicity at 5 days: percent leaf area affected” value [2, 9] was 20 B percent and the “Phytotoxicity at 7 days: percent leaf area affected” value [2, 9] was 25 B percent. The “Phytotoxicity at 3 days: percent leaf area affected” value [2, 10] was 35 C percent, the “Phytotoxicity at 5 days: percent leaf area affected” value [2, 10] was 50 D percent and the “Phytotoxicity at 7 days: percent leaf area affected” value [2, 10] was 45 C percent. The “Phytotoxicity at 3 days: percent leaf area affected” value [2, 11] was 80 E percent, the “Phytotoxicity at 5 days: percent leaf area affected” value [2, 11] was 97.5 EF percent and the “Phytotoxicity at 7 days: percent leaf area affected” value [2, 11] was 95 D percent. For the same molecule, the “Percent leaf area affected at 3 days” value ([3]; atrazine (Aatrex Nine-O) 100 ppm, alone or + NaSA 800 ppm) was 0 A Percent, the “Percent leaf area affected at 3 days” value ([3]; atrazine (Aatrex Nine-O) 500 ppm, alone or + NaSA 800 ppm) was 0 A Percent and the “Percent leaf area affected at 3 days” value ([3]; atrazine (Aatrex Nine-O) 1000 ppm, alone or + NaSA 800 ppm) was 0 A Percent. For the same molecule, the “Phytotoxicity at 2 days: percent leaf area affected” value [4, 12] was 1 A percent, the “Phytotoxicity at 3 days: percent leaf area affected” value [4, 12] was 17 B percent and the “Phytotoxicity at 7 days: percent leaf area affected” value [4, 12] was 93.9 B percent. For the same molecule, the “Phytotoxicity at 3 days: percent leaf area affected” value [4, 13] was 1.5 A percent, the “Phytotoxicity at 6 days: percent leaf area affected” value [4, 13] was 66.2 C percent and the “Phytotoxicity at 3 days: percent leaf area affected” value [4, 14] was 4.3 AB percent. For the same molecule, the “Phytotoxicity at 6 days: percent leaf area affected” value [4, 14] was 77.5 D percent, the “Phytotoxicity at 3 days: percent leaf area affected” value [4, 15] was 9.5 B percent and the “Phytotoxicity at 6 days: percent leaf area affected” value [4, 15] was 82.5 DE percent. The “Phytotoxicity at 3 days: percent leaf area affected” value ([5]; 15 C.) was 0 A percent, the “Phytotoxicity at 3 days: percent leaf area affected” value ([5]; 25 C.) was 0 A percent and the “Phytotoxicity at 3 days: percent leaf area affected” value ([5]; 35 C.) was 11.0 AB percent. For the same molecule, the “Phytotoxicity at 5 days: percent leaf area affected” value ([5]; 15 C.) was 0 A percent, the “Phytotoxicity at 5 days: percent leaf area affected” value ([5]; 25 C.) was 0.6 A percent and the “Phytotoxicity at 5 days: percent leaf area affected” value ([5]; 35 C.) was 73.4 C percent. For the same molecule, the “Phytotoxicity at 7 days: percent leaf area affected” value ([5]; 15 C.) was 5.9 B percent, the “Phytotoxicity at 7 days: percent leaf area affected” value ([5]; 25 C.) was 25 C percent and the “Phytotoxicity at 7 days: percent leaf area affected” value ([5]; 35 C.) was 97.8 C percent. For the same molecule, the “Phytotoxicity at 10 days: percent leaf area affected” value ([5]; 15 C.) was 39.1 B percent, the “Phytotoxicity at 10 days: percent leaf area affected” value ([5]; 25 C.) was 84.4 B percent and the “Phytotoxicity at 10 days: percent leaf area affected” value ([5]; 35 C.) was 100 C percent.

In the case of `O=C([O-])c1ccccc1O.[Na+]` [NaSA, sodium salicylate], the “Effect of added salicylate on atrazine herbicidal activity (in words)” value (“Effect of added salicylate” for short) ([1]; darkness) is reported as “conferred some activity in darkness”, the “Effect of added salicylate” value ([1]; low light) is reported as “potentiated atrazine herbicidal activity under low light” and the “Effect of salicylate on Aatrex Nine-O herbicidal activity (in words)” value ([2]; velvetleaf) is reported as “potentiates Aatrex Nine-O®”. For the same molecule, the “Percent leaf area affected at 3 days” value ([3]; NaSA 800 ppm alone) was 0 A Percent, the “Effect of salicylate on Basagran (bentazon) herbicidal activity (in words)” value ([4]; tobacco) was “potentiates Basagran®” and the “Effect of added salicylate” value ([4]; tobacco, apparent 3 days after application, persisted through 6 days) was “increased atrazine herbicidal activity”. For the same molecule, the “Effect of salicylate on atrazine herbicidal activity (in words)” value ([5]; range of temperatures (15-35 C)) was “potentiated atrazine herbicidal activity under a range of temperatures”.

`CC(C)N1C(=O)c2ccccc2NS1(=O)=O` [Bentazon, 3-(1-methylethyl)-1H-2,1,3-benzothiadiazin-4(3H)-one 2,2-dioxide] was tested, and the “Phytotoxicity at 4 days: percent leaf area affected” value ([4]; bentazon (Basagran) 100 ppm) was 10 A percent, the “Phytotoxicity at 4 days: percent leaf area affected” value ([4]; bentazon (Basagran) 250 ppm) was 32.5 B percent and the “Phytotoxicity at 4 days: percent leaf area affected” value ([4]; bentazon (Basagran) 500 ppm) was 72.5 CD percent.

`CSC(=O)c1cccc2nnsc12` [Acibenzolar-S-methyl, 1,2,3-benzothiadiazole-7-carbothioic acid S-methyl ester] was tested, and the “Potentiation Rating” value ([6]; salicylic acid or SAR inducers with Aatrex Nine-O (atrazine), compared with equimolar SA) was 3, the “Potentiation of the herbicidal activity of atrazine compared with salicylic acid (in words)” value [6] was “greater potentiation than equimolar salicylic acid” and the “Phytotoxicity at 2 days: percent leaf area affected” value [4, 16] was 0 A percent. For the same molecule, the “Phytotoxicity at 2 days: percent leaf area affected” value [4, 12] was 0 A percent, the “Phytotoxicity at 3 days: percent leaf area affected” value [4, 16] was 0 A percent and the “Phytotoxicity at 3 days: percent leaf area affected” value [4, 12] was 0 A percent. The “Phytotoxicity at 7 days: percent leaf area affected” value [4, 16] was 0.6 A percent, the “Phytotoxicity at 7 days: percent leaf area affected” value [4, 12] was 0 A percent and the “Effect of Actigard on atrazine activity (in words)” value ([4]; tobacco) was “dose-dependent acceleration of atrazine activity”.

`O=C(O)c1cccc(Cl)c1O` [3-Chlorosalicylic acid] was tested, and the “Potentiation Rating” value ([6]; salicylates, picolinates and benzoates at 2 mM with Aatrex Nine-O (atrazine)) was 3 and the “Potentiation of the herbicidal activity of atrazine compared with salicylic acid (in words)” value [6] was “greater potentiation than salicylic acid”.
